Data as given in PubChem BioAssay (NCI).
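Grown in 96-well plates, cells were treated for 48 hours with each compound at five concentrations. Insufficient inhibition: endpoint recorded as highest concentration tested. At the TGI there is no net growth.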

Tests used:
Test in all cases: inhibition of tumour cell growth, NCI panel, 48 h
[1] = test system: NCI-H522 lung
[2] = test system: RXF 393 renal
[3] = test system: SK-OV-3 ovarian
[4] = test system: K-562 leukemia
[5] = test system: TK-10 renal
[6] = test system: RPMI-8226 leukemia
[7] = test system: NCI-H460 lung
[8] = test system: DU-145 prostate
[9] = test system: SF-539 CNS
[10] = test system: UACC-257 melanoma
[11] = test system: IGROV1 ovarian
[12] = test system: OVCAR-3 ovarian
[13] = test system: SR leukemia
[14] = test system: COLO 205 colon
[15] = test system: EKVX NSCLC
[16] = test system: ACHN renal
[17] = test system: CCRF-CEM leukemia
[18] = test system: SF-268 CNS
[19] = test system: MDA-N
[20] = test system: SNB-75 CNS

Row | SMILES | TGI [1] [µM] | TGI [2] [µM] | TGI [3] [µM] | TGI [4] [µM] | TGI [5] [µM] | TGI [6] [µM] | TGI [7] [µM] | TGI [8] [µM] | TGI [9] [µM] | TGI [10] [µM] | TGI [11] [µM] | TGI [12] [µM] | TGI [13] [µM] | TGI [14] [µM] | TGI [15] [µM] | TGI [16] [µM] | TGI [17] [µM] | TGI [18] [µM] | TGI [19] [µM] | TGI [20] [µM]
1 | O=c1oc2c/c(=C\c3ccccn3)c(=O)c3cccc1c3-2 | > 100 | 37.7 | > 100 | > 100 | > 100 | > 100 | > 100 | > 100 | 57.4 | > 100 | > 100 | 39.4 | > 100 | > 100 | > 100 | > 100 | > 100 | > 100 | > 100 | –
2 | COc1ccc(/C=C2\CCc3cc(OC)c(OC)cc3C2=O)cc1 | – | > 10 | > 10 | > 10 | > 10 | > 10 | > 10 | > 10 | > 10 | > 10 | > 10 | > 10 | > 10 | > 10 | > 10 | > 10 | > 10 | > 10 | > 10 | > 10
3 | CCOC(=O)C(NC(=O)c1cccc(Cl)c1)(N1CCN(c2cc3c(cc2F)c(=O)c(C(=O)O)cn3C2CC2)CC1)C(F)(F)F (configuration not stated) | – | 34.4 | 66.5 | 20.1 | – | 23.6 | 42.9 | 70.5 | 31.3 | – | 41.5 | 29.5 | 25.8 | 30.2 | 55.2 | 31 | 9.78 | 29.1 | 29.4 | 50.7
4 | CCOC(=O)C(NC(=O)c1ccccc1)(Nc1ccc(S(=O)(=O)Nc2cc(C)nc(C)n2)cc1)C(F)(F)F (configuration not stated) | > 100 | > 100 | – | > 100 | > 100 | > 100 | > 100 | > 100 | > 100 | > 100 | > 100 | > 100 | > 100 | > 100 | > 100 | > 100 | > 100 | > 100 | > 100 | > 100
5 | NCCNCCCNC(=O)c1cc(-c2ccccc2)nc2ccccc12 | 37.6 | > 100 | > 100 | 54.9 | > 100 | > 100 | > 100 | > 100 | 36.7 | 51.5 | > 100 | > 100 | 82.3 | 30.9 | > 100 | > 100 | 51.2 | > 100 | 66.8 | –
6 | O=c1c2cc(S(=O)(=O)Nc3ccc(Cl)cc3Cl)ccc2ncn1NS(=O)(=O)c1cccc2ccccc12 | > 100 | – | > 100 | > 100 | > 100 | > 100 | > 100 | > 100 | > 100 | > 100 | > 100 | > 100 | 70.6 | > 100 | > 100 | > 100 | 47.7 | > 100 | > 100 | > 100
